Data: the NIST ThermoML archive (doi:10.1016/j.jct.2006.10.009)
Numbers after ± are expanded uncertainties.

Assay: Molar enthalpy of transition or fusion
Settings: Crystal; DSC

Compound	Molar enthalpy of transition or fusion [kJ/mol]
CCCCCCCCCC[N+](C)(C)CCCCCCCCCC.O=[N+]([O-])[O-] [Didecyldimethylammonium nitrate]	9.88 ± 0.36

Assay: not given
Settings: Crystal; DTA

Compound	Normal melting temperature [°C]
CCCCCCCCCC[N+](C)(C)CCCCCCCCCC.O=[N+]([O-])[O-] [Didecyldimethylammonium nitrate]	31.7 ± 4

Same assay, conditions: Crystal; visual observation

Compound	Normal melting temperature [°C]
CCCCCC [hexane]	-94.3 ± 4
Cc1ccccc1 [toluene]	-95.0 ± 4
CCCCCCCCCCCCCCCC [hexadecane]	18.0 ± 4
CCCCCCCCCCO [decan-1-ol]	5.1 ± 4
CCCCO [butan-1-ol]	-89.4 ± 4

Next, values leading:

Normal melting temperature [°C]	Compound
-126.4 ± 4	CCCO [propan-1-ol]
-99.0 ± 4	CCCc1ccccc1 [propylbenzene]
-14.9 ± 4	CCCCCCCCO [octan-1-ol]
